Experimental data from patent publication US9730944B2, “Antiviral activity of novel bicyclic heterocycles” (priority 2010, dated 2017).
≈ marks a conversion by molar mass, not a printed value. Like-named read-outs stand apart in the source and are kept apart here.

Experiments:
[1] = system: hRV-2; experiment: Rhinovirus type 2 antiviral assay in Hela Rh cells, MTS readout; format: cell-based, Human rhinovirus; conditions: Hela Rh cells
[2] = system: hRV-9; experiment: Rhinovirus type 9 antiviral assay in Hela Rh cells, MTS readout; format: cell-based, Human rhinovirus; conditions: Hela Rh cells
[3] = system: hRV-14; experiment: Rhinovirus type 14 antiviral assay in Hela Rh cells, MTS readout; format: cell-based, Human rhinovirus; conditions: Hela Rh cells
[4] = system: hRV-15; experiment: Rhinovirus type 15 antiviral assay in Hela Rh cells, MTS readout; format: cell-based, Human rhinovirus; conditions: Hela Rh cells
[5] = system: hRV-39; experiment: Rhinovirus type 39 antiviral assay in Hela Rh cells, MTS readout; format: cell-based, Human rhinovirus; conditions: Hela Rh cells
[6] = system: hRV-41; experiment: Rhinovirus type 41 antiviral assay in Hela Rh cells, MTS readout; format: cell-based, Human rhinovirus; conditions: Hela Rh cells
[7] = system: hRV-42; experiment: Rhinovirus type 42 antiviral assay in Hela Rh cells, MTS readout; format: cell-based, Human rhinovirus; conditions: Hela Rh cells
[8] = system: hRV-45; experiment: Rhinovirus type 45 antiviral assay in Hela Rh cells, MTS readout; format: cell-based, Human rhinovirus; conditions: Hela Rh cells
[9] = system: hRV-63; experiment: Rhinovirus type 63 antiviral assay in Hela Rh cells, MTS readout; format: cell-based, Human rhinovirus; conditions: Hela Rh cells
[10] = system: hRV-70; experiment: Rhinovirus type 70 antiviral assay in Hela Rh cells, MTS readout; format: cell-based, Human rhinovirus; conditions: Hela Rh cells
[11] = system: hRV-72; experiment: Rhinovirus type 72 antiviral assay in Hela Rh cells, MTS readout; format: cell-based, Human rhinovirus; conditions: Hela Rh cells
[12] = system: hRV-85; experiment: Rhinovirus type 85 antiviral assay in Hela Rh cells, MTS readout; format: cell-based, Human rhinovirus; conditions: Hela Rh cells
[13] = system: hRV-86; experiment: Rhinovirus type 86 antiviral assay in Hela Rh cells, MTS readout; format: cell-based, Human rhinovirus; conditions: Hela Rh cells
[14] = system: Hela Rh cells; experiment: Cytostatic/cytotoxic effect in Hela Rh cells (rhinovirus methodology, MTS)
[15] = system: genotype 1a H-77 replicon; experiment: HCV-1a replicon potency in RLuc-1 cells, bioluminescence; format: cell-based; conditions: for HCV-1a Replicon Selectivity Index: CC50/EC50, genotype 1a replicon
[16] = system: genotype 1b replicon; experiment: HCV genotype 1b replicon potency in R-luc cells, bioluminescence; format: cell-based; conditions: 72 hours, average of two or more independent experiments ± std. dev, read-out: Stable replicon cell lines EC50 (μM) Genotype1b (R-luc)
[17] = system: genotype 1a H-77 replicon; experiment: HCV genotype 1a replicon potency in GLuc-1 cells, bioluminescence; format: cell-based; conditions: 72 hours, average of two or more independent experiments ± std. dev, read-out: Stable replicon cell lines EC50 (μM) Genotype 1a (Gluc-1)
[18] = system: infectious genotype 2a virus (a J6/JFH-1 chimera); experiment: JFH-1 HCV-2a virus assay in Lunet-CD81 cells, NS3 expression readout; format: cell-based
[19] = system: poliovirus (PV type 1); experiment: microbe, parasite or virus in culture; format: cell-based; conditions: Enterovirus C, read-out: PV-1 EC50
[20] = system: poliovirus (PV type 2); experiment: microbe, parasite or virus in culture; format: cell-based; conditions: Enterovirus C, read-out: PV-2 EC50
[21] = system: poliovirus (PV type 3); experiment: microbe, parasite or virus in culture; format: cell-based; conditions: Enterovirus C, read-out: PV-3 EC50
[22] = in vitro; conditions: African green monkey, PV CC50
[23] = in vitro; conditions: human, PV CC50
[24] = Cytotoxicity in G-luc replicon cells, Promega CellTiter-Glo cell viability assay; conditions: G-luc (GLuc-1) HCV genotype 1a H-77 replicon cells
[25] = Cytotoxicity in HCV-1a replicon cells, Promega CellTiter-Glo cell viability assay
[26] = system: HIV-1 strain IIIB; experiment: Inhibition of replication of HIV-1 (IIIB strain) in MT-4 cells, MTT assay; format: cell-based; conditions: read-out: EC50 (μM) HIV-1 (IIIB)
[27] = system: HIV-2 strain (ROD); experiment: Inhibition of replication of HIV-2 (ROD strain) in MT-4 cells, MTT assay; format: cell-based; conditions: Human immunodeficiency virus 2, MT4, 120 h, read-out: EC50 (μM) HIV-2 (ROD)
[28] = in vitro; conditions: human
[29] = system: MT-4 cells
[30] = molecular target: purine nucleoside phosphorylase (Homo sapiens, UniProt P00491); conditions: J. C. Sircar et al. J. Med. Chem. 1986, 29, 1804-1806; cited from earlier work
[31] = system: RLuc-1 cells; experiment: Cytotoxicity in HCV-1a replicon cells, Promega CellTiter-Glo cell viability assay; conditions: read-out: HCV-1a Replicon CC50; replicon cells, 72 hours, CellTiter-Glo
[32] = system: Vero cells; conditions: African green monkey
[33] = system: Hela H cells; conditions: human
[34] = Hepatitis C virus, 72 h, read-out: HCV-1a Replicon EC50 (μM)
[35] = Hepatitis C virus, 72 h, read-out: Genotype 2a Virus (Lunet-CD81) EC50 (μM)
[36] = MT-4 cells, MTT assay, five days after infection, 50% protection from cytopathic effect
[37] = RLuc-1 cells, 72 hours, bioluminescence, read-out: HCV-1a Replicon EC50

purine nucleoside phosphorylase, sequence (P00491 whole entry, species assumed): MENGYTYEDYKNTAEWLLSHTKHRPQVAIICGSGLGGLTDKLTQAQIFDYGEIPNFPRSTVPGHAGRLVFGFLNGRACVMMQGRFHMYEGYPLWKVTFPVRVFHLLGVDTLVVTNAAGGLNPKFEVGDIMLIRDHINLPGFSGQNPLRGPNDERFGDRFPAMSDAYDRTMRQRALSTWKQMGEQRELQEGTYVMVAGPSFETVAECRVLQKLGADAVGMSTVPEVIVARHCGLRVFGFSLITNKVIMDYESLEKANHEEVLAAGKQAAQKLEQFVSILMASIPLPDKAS

## Nc1nc(N2CCN(C(=O)COc3ccc(Br)cc3)CC2)c2sc(Cc3ccc(F)cc3)nc2n1 [Example 231, 1-(4-(5-amino-2-(4-fluorobenzyl)thiazolo[5,4-c]pyrimidin-7-yl)piperazin-1-yl)-2-(4-bromophenoxy)ethanone]
[1]
  hRV-2 EC50: =0.51 μg/ml
[2]
  hRV-9 EC50: =0.55 μg/ml
[3]
  hRV-14 EC50: =1.20 μg/ml
[4]
  hRV-15 EC50: =1.38 μg/ml
[5]
  hRV-39 EC50: =0.34 μg/ml
[6]
  hRV-41 EC50: =0.89 μg/ml
[7]
  hRV-42 EC50: =1.26 μg/ml
[8]
  hRV-45 EC50: =2.22 μg/ml
[9]
  hRV-63 EC50: =2.32 μg/ml
[10]
  hRV-70 EC50: =4.60 μg/ml
[11]
  hRV-72 EC50: =4.95 μg/ml
[12]
  hRV-85 EC50: =2.21 μg/ml
[13]
  hRV-86 EC50: =4.42 μg/ml
[14]
  CC50: >50.00 µg/mL

## Nc1nc(N2CCN(C(=O)COc3ccc(Cl)cc3)CC2)c2nc(C3CC3)sc2n1 [Example 119, 5-amino-2-cyclopropyl-7-[4-(4-chlorophenoxyacetyl)piperazin-1-yl]-thiazolo[5,4-d]pyrimidine]
[15]
  HCV-1a Replicon Selectivity Index: >87
[15]; [34]
  EC50: 0.5 µM
[16]; Hepatitis C virus
  EC50: 0.341 ± 0.024 µM
[17]; Hepatitis C virus
  EC50: 0.422 ± 0.104 µM
[18]; [35]
  EC50: > 50 µM
[19]; HeLa
  EC50: 24.1 µg/mL (≈ 54.1 µM)
[19]; Vero
  EC50: 0.34 µg/mL (≈ 0.764 µM)
[20]; HeLa
  EC50: 1.21 µg/mL (≈ 2.72 µM)
[20]; Vero
  EC50: 0.33 µg/mL (≈ 0.742 µM)
[21]; HeLa
  EC50: > 50 µg/mL
[21]; Vero
  EC50: 12.5 µg/mL (≈ 28 µM)
[22]
  CC50: > 150 µg/mL
[23]
  CC50: > 50 µg/mL
[24]
  CC50 at 72 h: > 50000 nM
[25]
  CC50 at 72 h: > 44400 nM

## CCOc1nc(N)nc2sc(-c3ccc(F)cc3)cc12 [Example 363, 4-ethoxy-6-(4-fluorophenyl)thieno[2,3-d]pyrimidin-2-amine]
[26]; Human immunodeficiency virus 1, IIIB, MT4, 120 h
  EC50: ≥ 432 µM
[27]
  EC50: ≥ 432 µM
other
  melting point: 142 °C
[28]
  CC50: 432000 nM

## COCCCNc1nc(N)nc2sc(-c3ccc(F)cc3)nc12 [Example 32, 2-(4-fluorophenyl)-N-7-(3-methoxypropyl)thiazolo[5,4-d]pyrimidine-5,7-diamine]
[26]; [36]
  EC50: > 349 µM
[29]
  CC50: > 365000 nM

## Nc1nc(N2CCN(C(=O)COc3ccc(Cl)cc3)CC2)c2nc(C3CC3)[nH]c2n1 [Example 398, 1-(4-(2-amino-8-cyclopropyl-9H-purin-6-yl)piperazin-1-yl)-2-(4-chlorophenoxy)ethanone]
[15]
  HCV-1a Replicon Selectivity Index: >143
[15]; [34]
  EC50: 0.3 µM
[16]; Hepatitis C virus
  EC50: 0.192 ± 0.008 µM
[17]; Hepatitis C virus
  EC50: 0.274 ± 0.04 µM
[18]; [35]
  EC50: 29 µM
[24]
  CC50 at 72 h: > 50000 nM
[25]
  CC50 at 72 h: > 44400 nM

## Cc1nc2c(N3CCN(C(=O)COc4ccc(Cl)cc4)CC3)nc(N)nc2[nH]1 [Example 400, 1-(4-(2-amino-8-methyl-9H-purin-6-yl)piperazin-1-yl)-2-(4-chlorophenoxy)ethanone]
[15]
  HCV-1a Replicon Selectivity Index: >164
[15]; [34]
  EC50: 0.3 µM
[16]; Hepatitis C virus
  EC50: 0.188 ± 0.012 µM
[17]; Hepatitis C virus
  EC50: 0.125 ± 0.035 µM
[18]; [35]
  EC50: > 50 µM
[24]
  CC50 at 72 h: > 50000 nM
[25]
  CC50 at 72 h: > 44400 nM

## Nc1nc2sc(N)nc2c(=O)[nH]1 [2,5-Diaminothiazolo[5,4-d]pyrimidin-7(6H)-one]
[30]
  inhibitor of purine nucleoside phosphorylase: weak inhibitor

## Nc1nc(NCc2ccccc2)c2cc(-c3ccc(F)cc3)sc2n1 [Example 327, 2-amino-4-N-benzylamino-6-(4-fluorophenyl)-thieno[2,3-d]pyrimidine]
[15]; [37]
  EC50: 38.6 µM
[31]
  CC50: 23200 nM

## O=C(COc1ccc(Cl)cc1)N1CCN(c2ncnc3oc(-c4ccc(F)cc4)nc23)CC1 [Example 167, 2-(4-chlorophenoxy)-1-(4-(2-(4-fluorophenyl)oxazolo[5,4-d]pyrimidin-7-yl)piperazin-1-yl)ethanone]
[26]; Human immunodeficiency virus 1, IIIB, MT4, 120 h, MT-4 cells, MTT assay, five days after infection, 50% protection from cytopathic effect
  EC50: > 50 µM
[27]; [36]
  EC50: > 50 µM
[19]; HeLa
  EC50: > 50 µg/mL
[19]; Vero
  EC50: > 50 µg/mL
[20]; HeLa
  EC50: ≥ 50 µg/mL
[21]; HeLa
  EC50: > 50 µg/mL
[21]; Vero
  EC50: > 50 µg/mL
[32]
  PV CC50: 105.69 µg/mL
[33]
  PV CC50: 31.91 µg/mL
[28]
  CC50: > 50000 nM
[22]
  CC50: > 150 µg/mL
[23]
  CC50: > 50 µg/mL

## Nc1nc(N2CCN(C(=O)COc3ccccc3)CC2)c2nc(-c3ccc(F)cc3)[nH]c2n1 [Example 401, 1-(4-(2-amino-8-(4-fluorophenyl)-9H-purin-6-yl)piperazin-1-yl)-2-phenoxyethanone]
[15]
  HCV-1a Replicon Selectivity Index: 26.5
[15]; [34]
  EC50: 0.8 µM
[16]; Hepatitis C virus
  EC50: 0.081 ± 0.041 µM
[17]; Hepatitis C virus
  EC50: 0.059 ± 0.008 µM
[18]; [35]
  EC50: 15.4 µM
[24]
  CC50 at 72 h: > 50000 nM
[25]
  CC50 at 72 h: 20400 nM

## CSc1nc2c(N3CCN(C(=O)COc4ccc(Cl)cc4)CC3)nc(N)nc2n1C [Example 428, 1-(4-(2-amino-9-methyl-8-(methylthio)-9H-purin-6-yl)piperazin-1-yl)-2-(4-chlorophenoxy)ethanone]
[15]
  HCV-1a Replicon Selectivity Index: >888
[15]; [34]
  EC50: 0.05 µM
[16]; Hepatitis C virus
  EC50: 0.005 ± 0.002 µM
[17]; Hepatitis C virus
  EC50: 0.056 ± 0.002 µM
[18]; [35]
  EC50: > 50 µM
[24]
  CC50 at 72 h: > 50000 nM
[25]
  CC50 at 72 h: > 44400 nM

## CCCc1nc2c(N3CCN(C(=O)COc4ccc(Cl)cc4)CC3)nc(N)nc2[nH]1 [Example 397, 1-(4-(2-amino-8-propyl-9H-purin-64)piperazin-1-yl)-2-(4-chlorophenoxy)ethanone]
[15]; [37]
  EC50: 1.1 µM
[16]
  EC50: 0.14 ± 0.11 µM
[17]
  EC50: 0.181 ± 0.108 µM
[18]; J6/JFH-1 chimera, MOI of 1, 72 hours, NS3 readout, read-out: Genotype 2a Virus (Lunet-CD81) EC50
  EC50: 31.2 µM
[31]
  CC50: > 44400 nM
